Assay results: US10030042B2, “Synthesis of bicyclic nucleosides” (MiRagen Therapeutics, Inc., priority 2014, dated 2018)
Entries after “also recorded” stand apart in the source; their conditions may differ. Oligonucleotides are written 5' to 3', each unit as a sugar letter and its base; * is a phosphorothioate linkage, no mark a phosphodiester; rarer units and linkages stand in square brackets, end groups in braces. Plain capitals give the bases only. [aminoLNA-N] = amino locked nucleic acid nucleoside (N: the base); l = locked nucleic acid (LNA); d = 2'-deoxy (DNA)

How the values were obtained:
[1] = tested on: mature human miR-208a (22 nucleotide RNA complement); experiment: Duplex melting temperature (Tm) of anti-208a oligonucleotides annealed to complementary RNA; type: binding; conditions: for Tm: RNA complement; for ΔTm, DNA: difference to fully DNA phosphodiester 10931
Method: The melting temperature (Tm) of modified 16 nucleotide phosphodiester strands were determined and compared to the Tm of identical 16 nucleotide sequences having natural phosphodiester DNA nucleotides. Specifically, the relative aminoCBBN melting temperature (Tm) compared to the 2′-deoxynucleoside or oxoCBBN nucleoside with the same nucleobase was determined on a per incorporation basis by determining the difference between the melting temperature of the amino-modified 16 nucleotide length phosphodiester strand and that of the identical 16 nucleotide sequence utilizing either the 2′-deoxynucleoside or oxoCBBN phosphodiester DNA nucleotide. Tm differences of substitutions were compared only when they were placed in the same position of the sequence.
For example, the modified anti-208a oligonucleotides were annealed to the complementary sequence, twenty-two nucleotides in length, comprised of RNA nucleosides and a phosphate backbone. The complementary sequence was identical to the endogenous mature miRNA. Thermal denaturation temperatures (Tm) were measured as a maximum of the first derivative plot of melting curvex (A260 vs. Temp). The duplexes were constituted at 1 μM in a 0.9% NaCl buffer. Temperature was ramped from 25° C. to 95° C. at 1° C./min and OD's at 260 nm were read once per 30 seconds. Tm values are averages of at least two measurements.
Duplex melting temperatures for various modifications of a 16 nucleotide sequence, complementary to a nucleotide sequence of mature human miR-208a were measured using a Varian Cary 1E UV-Vis Spectrophotometer. Anti-miRNA 208a oligonucleotide sequences tested included a fully DNA phosphodiester (compound M-10931 (SEQ ID NO:9)), four DNA phosphodiester oligonucleotides with 1, 2 or 3 aminoCBBN thymidine residues in place of dT residues (compounds M-11915 (SEQ ID NO: 1), M-11916 (SEQ ID NO:2), M-11917 (SEQ ID NO:3), and M-11918 (SEQ ID NO:4)), mixed 9 LNA/7 DNA phosphorothioate oligonucleotide (compound M-10101 (SEQ ID NO:10)), and 2 mixed LNA/DNA/aminoCBBN phosphorothioate oligonucleotides where LNA thymidines of the parent compound, compound M-10101 (SEQ ID NO: 10), were replaced with either 1 or 2 aminoCBBN residues (compounds M-11920 (SEQ ID NO:6) and M-11919 (SEQ ID NO:5)). Duplexes were constituted at 1 μM in 0.9% NaCl. Temperature was ramped from 25° C. to 95° C. at 1° C./min and OD's at 260 nm were read once per 30 seconds.

miR-208a = experiment: Dual-luciferase reporter assay in HeLa cells stably expressing miR-208a; type: cell-based, human; conditions: FIG. 4; renilla/firefly luminescence, 24 hours after transfection, in words
Method: A HeLa cell line stably expressing miR-208a was generated. Specifically, a miRNA expression vector (Cell BioLabs, Inc.) expressing miR-208a was transfected into HeLa cells. Cells were then selected using a puromycin selection screen and clones which had detectable miR-208a expression as measured by qPCR were isolated (Ct value=˜30).
The cells were plated in a black-walled 96 well plate with 10,000 cells per well. After twenty-four hours following plating, the cells were transfected with a dual-luciferase plasmid containing the miR-208a binding site in the 3′ UTR of the renilla gene and various miR-208a inhibitors (compounds M-11919 (SEQ ID NO:5), M-11920 (SEQ ID NO:6), and M-10101 (SEQ ID NO:10)). Compound M-10591 was a non-targeting control. The cells were incubated for 24 hours at 37° C. and then both firefly (as a transfection normalization) and renilla levels were measured by luminescence using the Dual-Luciferase Reporter Assay System (Promega). Data was normalized to cells treated with only the miR-208a dual luciferase plasmid (psi check 208a).

RNA Complement = conditions: Table 3, cited from earlier work; for Tm: DNA 9mer, phosphate backbone, RNA complement, literature values
[2] = Table 3, PS backbone 10101-like
[3] = Table 3, PS backbone, versus parent 10101
[4] = Table 1, phosphate backbone, duplex 1 μM in 0.9% NaCl

For “lCs.dTs.dTs.dTs.abTs.abTs.dGs. lCs.dTs.lCs.lGs.dTs.lCs.dTs.lTs.lA [Compound M-11919]”, the Tm [1, 2] was 80.04 °C, the “ΔTm, parent” value [1, 3] was −6.66 °C and the ΔTm/mod [1, 3] was −6.66 °C/modification. The miR-208a inhibition activity (miR-208a) was “comparable activity as compound M-10101; also recorded: retains all activity of the optimized M-10101”.

In the case of “dG; IT; dG; dA; IT; dA; IT; dG; dC (DNA dGlTdGdAlTdAlTdGdC) [DNA_9mer_PO_3LNA-T, literature DNA 9mer phosphodiester with three LNA-T]”, the Tm (RNA Complement) is given as 50 °C.

For “dG; aIT; dG; dA; aIT; dA; aIT; dG; dC (DNA dG[aminoLNA-T]dGdA[aminoLNA-T]dA[aminoLNA-T]dGdC) [DNA_9mer_PO_3aminoLNA-T, literature DNA 9mer phosphodiester with three aminoLNA-T]”, the Tm (RNA Complement) is given as 47 °C, the “ΔTm, parent” value (RNA Complement; aminoLNA 9mer versus LNA 9mer) is given as −1 °C and the ΔTm/mod (RNA Complement; aminoLNA 9mer versus LNA 9mer) is given as −1 °C/modification.

“ICs; dTs; dTs; dTs; ITs; ITs; dGs; ICs; dTs; ICs; IGs; dTs; ICs; dTs; ITs; IA [Compound M-10101, reference compound]” showed a Tm [1, 2] of 86.7 °C.

With “lCs.dTs.dTs.dTs.lTs.lTs.dGs.lCs. dTs.lCs.lGs.dTs.lCs.dTs.abTs.lA [Compound M-11920]” the Tm [1, 2] was 85.125 °C, the “ΔTm, parent” value [1, 3] was −1.575 °C and the ΔTm/mod [1, 3] was −0.7875 °C/modification. For the same substance, the “Affinity for the miR-208a RNA (Tm data, in words)” value ([1]; comparison of M-11920 with M-11919) was “less affinity for the miR-208a RNA than the M-11919” and the miR-208a inhibition activity (miR-208a) was “slightly less activity compared to the other two inhibitors”.

For “dC; dT; dT; dT; dT; dT; dG; dC; dT; dC; dG; dT; dC; dT; dT; dA (DNA CTTTTTGCTCGTCTTA; unmodified DNA) [Compound M-10931, reference compound]”, the “ΔTm, DNA” value ([1]; Table 1) was 0 °C and the Tm [1, 4] was 53.1 °C.

For “bC.bT.bT.bT.bT.bT.dG.bC.bT.bC. dG.bT.bC.bT.bT.dA [Compound M-10924]”, the “ΔTm, DNA” value ([1]; Table 1) was 36.7 °C, the ΔTm/mod ([1]; Table 1, per modification, versus DNA) was 2.8 °C/modification and the Tm [1, 4] was 89.8 °C.
